Columns and labels:
[1] = tested on: mammary adenocarcinoma MA16/C; assay: Study IV: effect of oral sodium chloride solution on the antitumour activity of intravenous CPT-11
Source text: A Log tumour cell kill value of 0.7 corresponds to minimum activity, while a value greater than 2.8 corresponds to a high level of activity.

[2] = mice, CPT-11 40 mg/kg i.v.; CPT-11 group versus CPT-11/NaCl group, days 1 and 5
Procedure: The body weight is measured on days 1, 3, 6 and 8. The plasma samples for the toxicokinetic analysis are taken on days 1 and 5. […] The relative and absolute weights of the thymus, of the spleen and of the testicles are measured, and the complete gastrointestinal tract, the sternal bone marrow, the thymus, the spleen, the testicles and the epididymes are removed from all the mice and subjected to examination under a microscope.

CD1 male mice = assay: Study I: protective effect of oral sodium chloride solution on the intestinal toxicity of intravenous CPT-11; type: in vivo
Procedure: The body weight is recorded on days 1, 6, 11 and 13. […] The complete gastrointestinal tract is removed from all of the mice. The gastrointestinal tract of the mice which survived to the end of the observation period is subjected to examination under a microscope.

Procedure for female Beagle dogs: The animals are kept with no administration for 2 days after the final administration of sodium chloride at 9 g/l (up to day 9).
The body weight is recorded during the pretest period and on days 5 and 9. The animals are sacrificed and autopsied on day 9. Representative tissue samples taken from the gastrointestinal tract are removed from all the animals and subjected to examination under a microscope.

Row | Compound | total cumulative dose at the maximum nontoxic dose ([1]; C3H/HeN female mice carrying MA16/C, i.v. for 5 consecutive days) [mg/kg] | maximum loss of body weight ([1]; at the maximum nontoxic dose, day 11 (CPT-11 group), day 12 (CPT-11/NaCl group)) [%] | Log cell kill value ([1]; mammary adenocarcinoma MA16/C s.c. in C3H/HeN female mice, at the maximum nontoxic dose) | areas under the curve (AUC) [2] | maximum plasma concentrations (Cmax) [2] | loss of body weight (CD1 male mice; CPT-11 40 mg/kg i.v. days 6 to 10, CPT-11 group compared with CPT-11/NaCl group) | severity of microscopic intestinal lesions (loss of crypts, shortening of villi) (CD1 male mice; CPT-11 40 mg/kg i.v. days 6 to 10, autopsy day 13, small intestine) | mortality linked to the administration of CPT-11 (CD1 male mice; CPT-11 40 mg/kg i.v. days 6 to 10, observed on days 6 and 7, dead/total mice) | severity of gastrointestinal lesions (degeneration of the mucosa) (female Beagle dogs; CPT-11 20 mg/kg single i.v. dose on day 6, autopsy day 9) | redness on the mucosa of the large intestine (frequency) (female Beagle dogs; CPT-11 20 mg/kg single i.v. dose, CPT-11 group compared with CPT-11/NaCl group)
1 | CCc1c2c(nc3ccc(OC(=O)N4CCC(N5CCCCC5)CC4)cc13)-c1cc3c(c(=O)n1C2)COC(=O)[C@]3(O)CC [CPT-11, irinotecan] | 118 | 10 | 1.7 | identical | identical | greater | moderate to pronounced | 7/15 | moderate to pronounced | more common
2 | CCc1c2c(nc3ccc(O)cc13)-c1cc3c(c(=O)n1C2)COC(=O)[C@]3(O)CC [SN-38] |  |  |  | identical | identical |  |  |  |  | 

From US6476043B1, “Use of camptothecin derivatives, with reduced gastrointestinal toxicity” (Aventis Pharma S.A., priority 1998, dated 2002)
